Test results as given in patent US20020123648A1, “Aqueous stable lysine solution” (AJINOMOTO CO., INC., priority 1999, published 2002).

Key:
[1] = Solubility of lysine: suspension stirred 1 week at constant temperature, lysine analysed in supernatant; type: physicochemical; conditions: 20° C.; chloride ions at a molar ratio of 27% or less to the lysine (hydrochloric acid)
Description: 70% lysine base solution obtained under (1) above, 35% hydrochloric acid and deionized water were used in the amounts shown in Table 1 below, respectively, to prepare 7 kinds of solutions. In these solutions, the lysine base crystals obtained under (2) above and the lysine hydrochloride.2H2O crystals obtained under (3) above were suspended respectively in the amounts shown in the same table, and then stirred for 1 week during which the temperature was kept at 20° C.
The crystals were removed from these suspensions, and the concentration of the chloride ions in each of the remaining solutions was analyzed by an ion chromatographic analyzer “Yokokawa IC7000 model”, and the concentration of lysine therein was analyzed by an amino acid analyzer “Hitachi L-8500 model”. […]
The crystals were removed from these suspensions, and the concentration of the chloride ions in each of the resulting solutions (supernatants) was analyzed by the ion chromatographic analyzer “Yokokawa IC7000 model”, and the concentration of the lysine therein was analyzed by the amino acid analyzer “Hitachi L-8500 model”. […]

[2] = storage at 50° C. for 6 weeks; cited from earlier work
[3] = used in the same molar amount; cited from earlier work

NCCCC[C@H](N)C(=O)O [lysine]
solubility of lysine compared with the case where the chloride ions are not contained (FIG. 1) [1]: increased

NCCCC[C@H](N)C(=O)O [crystalline L-lysine, L-lysine]
coloration after storage [2]: evidently colored | formation of by-products after storage [2]: confirmed

Cl.NCCCC[C@H](N)C(=O)O [L-lysine monohydrochloride]
action in a feeding experiment [3]: same action
